# Values quoted from earlier work as cited in article PMC5845353, “The selective cathepsin K inhibitor MIV-711 attenuates joint pathology in experimental animal models of osteoarthritis” (Journal of Translational Medicine, 2018).
# Test system: HP-1
# Set-up: method as in PMID 22484689
# Settings: ACLT rabbits; cited from earlier work
smiles,measurement,value
CN1CCN(c2nc(-c3ccc(C(=O)NC4(C(=O)NCC#N)CCCCC4)cc3)cs2)CC1 [L-006235],reduction of HP-1 at dose sufficient for protection of bone loss,60%
